Tested on: GAT-1 in human iPSC-derived neurons
Experiment: 3H GABA uptake, human iPSC-derived neurons
Type: cell-based
Conditions: PBA treated human iPSC-derived neurons; PBA 2 mM, 24 hrs
Procedure: Live images of human neural progenitor cells (NPCs), astrocytes and GABAergic inhibitory neurons differentiated from the human induced pluripotent stem cells (iPSCs) on the day of experiment. […] The DMSO treated corrected or patient cells was taken as 1. […] GABA flux was measured after 30 min transport at room temperature. The influx of GABA, expressed in pmol/μg protein/min, was averaged from duplicates for each condition and for each transfection. The average counting was DMSO treated condition taken as 1. In FIG. 5B, FIG. 5D and FIG. 5F, 966 stands for CI-966 (50 μM) and 711 stands for NNC-711 (35 μM) that was applied 30 min to the astrocytes transfected with the wildtype GAT-1^YFP before preincubation and removed during preincubation. In FIGS. 5B and D, ***p<0.001 vs. corrected DMSO treated. § § <0.01, § § § p<0.001 vs. patient DMSO treated. […] In FIGS. 5B-E, n=4-8 batches of cells. In FIG. 5F, n=4-5 different transfections). Unpaired t test was used for FIG. 5C and FIG. 5E. […] Values were expressed as mean±S.E.M.). […]
Briefly, cells were cultured in […] dishes for 3 days before the GABA uptake experiment in DMEM with 10% fetal bovine serum and 1% penicillin/streptomycin. […] Glacial acetic acid was added, and lysates were then determined on a liquid scintillator with QuantaSmart. […]

SMILES: O=C(O)CCCc1ccccc1 [PBA, 4-phenylbutyric acid]
- increase of GABA uptake: ~20%

Reference: US20260144769A1, “4-PHENYLBUTYRATE RESTORED GABA UPTAKE AND REDUCED SEIZURES IN SLC6A1 VARIANT-MEDIATED DISORDERS” (Vanderbilt University, priority 2022, published 2026)
